Assay results from patent US20060073995A1, “Animal shampoo” (priority 2004, published 2006).

Assay: Stability study of the shampoo solution at room temperature (active ingredient remaining)
Type: physicochemical
Procedure: Solution was stirred and stability studies were performed at room temperature

N-chloro-4-carboxybenzenesulfonamide disodium salt active ingredient remained (in Example 1 shampoo (1% active, pH just below 9), after 49 days): 84.8%
N-chloro-4-carboxybenzenesulfonamide disodium salt active ingredient remained (in Example 2 shampoo (1% active, pH 9), after 62 days): 100%
N-chloro-4-carboxybenzenesulfonamide disodium salt active ingredient remained (in Example 3 shampoo (1% active, pH 9), after 62 days): 88.1%
Substance: N-chloro-4-carboxybenzenesulfonamide disodium salt
